Reference: ChEMBL document CHEMBL1150570, “Five novel neuroprotective triterpene esters of Ulmus davidiana var. japonica” (2001)

Test: Neuroprotective activity against glutamate-induced toxicity in Sprague-Dawley rat cortical cells assessed as cell viability at 5 uM pretreated 1 hr before glutamate challenge by LDH release assay
Assay type: functional
Conditions: read-out: Activity

| Compound | viability at 5 µM [%] |
| --- | --- |
| C=C(C)[C@@H]1CC[C@]2(C)C[C@H](O)[C@]3(C)[C@H](C[C@@H](OC(=O)c4ccc(O)c(OC)c4)[C@@H]4[C@@]5(C)CC[C@H](O)C(C)(C)[C@@H]5CC[C@]43C)[C@@H]12 [ULMICIN A] | 48 |
| C=C(C)[C@@H]1CC[C@]2(C)C[C@H](O)[C@]3(C)[C@H](C[C@@H](OC(=O)c4ccc(O)cc4)[C@@H]4[C@@]5(C)CC[C@H](O)C(C)(C)[C@@H]5CC[C@]43C)[C@@H]12 [ULMICIN B] | 51.2 |
| C=C(C)[C@@H]1CC[C@]2(C)C[C@H](OC(=O)c3ccc(O)cc3)[C@]3(C)[C@H](C[C@@H](OC(=O)c4ccc(O)c(OC)c4)[C@@H]4[C@@]5(C)CC[C@H](O)C(C)(C)[C@@H]5CC[C@]43C)[C@@H]12 [ULMICIN C] | 49.2 |
| C=C(C)[C@@H]1CC[C@]2(C)C[C@H](OC(=O)c3ccc(O)c(OC)c3)[C@]3(C)[C@H](C[C@@H](OC(=O)c4ccc(O)c(OC)c4)[C@@H]4[C@@]5(C)CC[C@H](O)C(C)(C)[C@@H]5CC[C@]43C)[C@@H]12 [ULMICIN D] | 44.2 |
| C=C(C)[C@@H]1CC[C@]2(C)C[C@H](OC(=O)c3ccccc3)[C@]3(C)[C@H](C[C@@H](OC(=O)c4ccc(O)c(OC)c4)[C@@H]4[C@@]5(C)CC[C@H](O)C(C)(C)[C@@H]5CC[C@]43C)[C@@H]12 [ULMICIN E] | 41 |
